Read-outs that look alike come from different tables or passages of the source. Where a SMILES comes first, the peptide text is derived from it. [ ]: non-standard residue; d: D form. Aib = CC(C)(N)C(=O)O

The record followed here is US20150344540A1, “NOVEL GLP-1 RECEPTOR AGONISTS WITH CHOLESTEROL EFFLUX ACTIVITY” (NOVO NORDISK A/S, priority 2012, published 2015).

Experiment [1] concerns Mouse monocyte/macrophage cell line, RAW 264.7. The experiment in a line: Cholesterol efflux assay (3H-cholesterol, macrophage cell line). It is filed as cell-based. As to conditions: RAW 264.7, 4 hrs incubation, 0.1% human serum albumin; for 4 h Cholesterol Efflux Emax: ABCA1-mediated efflux.
In the next experiment the target is human GLP-1 receptor (Homo sapiens, UniProt P43220). Kind of experiment: Functional GLP-1 receptor assay, in vitro potency (CRE luciferase; whole cells). The experiment is classed as cell-based.
Setting [2] is: BHK cells expressing human GLP-1 receptor, 0% HSA, read-out: GLP1R CRE luc 0% HSA EC50 Mean Value.
Setting [3] is: GLP1R CRE luc 1% HSA EC50 Mean Value, BHK cells expressing human GLP-1 receptor, 1% HSA.

human GLP-1 receptor, sequence (P43220 24-463): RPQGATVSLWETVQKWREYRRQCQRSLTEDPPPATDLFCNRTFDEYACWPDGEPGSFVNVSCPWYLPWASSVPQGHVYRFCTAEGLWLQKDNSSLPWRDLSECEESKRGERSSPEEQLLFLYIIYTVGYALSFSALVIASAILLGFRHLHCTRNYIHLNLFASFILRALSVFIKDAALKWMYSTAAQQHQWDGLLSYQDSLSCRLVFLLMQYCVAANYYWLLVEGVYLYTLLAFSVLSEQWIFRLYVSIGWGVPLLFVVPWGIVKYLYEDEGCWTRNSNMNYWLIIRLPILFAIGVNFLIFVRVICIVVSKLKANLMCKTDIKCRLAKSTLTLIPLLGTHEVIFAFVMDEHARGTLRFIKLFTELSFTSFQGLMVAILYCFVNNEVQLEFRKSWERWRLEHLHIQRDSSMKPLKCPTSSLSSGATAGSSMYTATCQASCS

With `CC[C@H](C)[C@H](NC(=O)[C@H](Cc1ccccc1)NC(=O)[C@H](CCC(=O)O)NC(=O)[C@H](CCCCN)NC(=O)[C@@H](NC(=O)[C@H](C)NC(=O)[C@H](CCC(=O)O)NC(=O)CNC(=O)[C@H](CCC(=O)O)NC(=O)[C@H](CC(C)C)NC(=O)[C@H](Cc1ccc(O)cc1)NC(=O)[C@H](CO)NC(=O)[C@H](CO)NC(=O)[C@@H](NC(=O)[C@H](CC(=O)O)NC(=O)[C@H](CO)NC(=O)[C@@H](NC(=O)[C@H](Cc1ccccc1)NC(=O)[C@@H](NC(=O)CNC(=O)[C@H](CCC(=O)O)NC(=O)C(C)(C)NC(=O)[C@@H](N)Cc1c[nH]cn1)[C@@H](C)O)[C@@H](C)O)C(C)C)C(C)C)C(=O)N[C@@H](C)C(=O)N[C@@H](Cc1c[nH]c2ccccc12)C(=O)N[C@@H](CC(C)C)C(=O)N[C@H](C(=O)NCC(=O)NC(C)(C)C(=O)N[C@@H](CCCCN)C(=O)N[C@@H](CCC(=O)O)C(=O)N[C@@H](Cc1ccccc1)C(=O)N[C@@H](CC(C)C)C(N)=O)C(C)C` [Compound 10] (H-H[Aib]EGTFTSDVSSYLEGEAVKEFIAWLVG[Aib]KEFL-NH2), the “4 h Cholesterol Efflux Emax” value in experiment [1] turned out to be 79%. The values for the EC50 on human GLP-1 receptor (setting [2]) and at human GLP-1 receptor (setting [3]) were 0.01 nM and 0.004 nM, respectively.

Take `CC[C@H](C)[C@H](NC(=O)[C@H](Cc1ccccc1)NC(=O)[C@H](CCC(=O)O)NC(=O)[C@H](CCCCN)NC(=O)[C@@H](NC(=O)[C@H](C)NC(=O)[C@H](CCC(=O)O)NC(=O)CNC(=O)[C@H](CCC(=O)O)NC(=O)[C@H](CC(C)C)NC(=O)[C@H](Cc1ccc(O)cc1)NC(=O)[C@H](CO)NC(=O)[C@H](CO)NC(=O)[C@@H](NC(=O)[C@H](CC(=O)O)NC(=O)[C@H](CO)NC(=O)[C@@H](NC(=O)[C@H](Cc1ccccc1)NC(=O)[C@@H](NC(=O)CNC(=O)[C@H](CCC(=O)O)NC(=O)C(C)(C)NC(=O)[C@@H](N)Cc1c[nH]cn1)[C@@H](C)O)[C@@H](C)O)C(C)C)C(C)C)C(=O)N[C@@H](C)C(=O)N[C@@H](Cc1c[nH]c2ccccc12)C(=O)N[C@@H](CC(C)C)C(=O)N[C@H](C(=O)N[C@@H](CCC(=O)O)C(=O)N[C@@H](CCCCN)C(=O)N[C@H](C(=O)N[C@@H](CCCCN)C(=O)NCC(=O)N[C@@H](Cc1ccccc1)C(=O)N[C@@H](CC(C)C)C(N)=O)C(C)C)C(C)C` [Compound 115, [Aib8,Glu23,Val25,Glu34,Lys35,Val36,Lys37]-GLP-1-(7-37)-peptidyl-Glv-Phe-Leu amide] (H-H[Aib]EGTFTSDVSSYLEGEAVKEFIAWLVEKVKGFL-NH2): the “4 h Cholesterol Efflux Emax” value in experiment [1] came to 94%. The compound also had an EC50 on human GLP-1 receptor (setting [3]) of 0.032 nM.

For the compound “H-HAEGTFTSDVSSYLEGQAAKEFIAWLVEKVKEFLER-OH [Compound 130, [Glu34,Lys35,Val36,Lys37]-GLP-1-(7-37)-peptidyl-Glu-Phe-Leu-Glu-Arg]”, the “4 h Cholesterol Efflux Emax” value in experiment [1] was 125%. Besides, the figures for the EC50 at human GLP-1 receptor (setting [2]) and on human GLP-1 receptor (setting [3]) were 0.034 nM and 0.011 nM, respectively.

In the case of `CC[C@H](C)[C@H](NC(=O)[C@H](Cc1ccccc1)NC(=O)[C@H](CCC(=O)O)NC(=O)[C@H](CCCNC(=N)N)NC(=O)[C@@H](NC(=O)[C@H](C)NC(=O)[C@H](CCC(=O)O)NC(=O)[C@H](CCC(=O)O)NC(=O)[C@H](CCC(=O)O)NC(=O)[C@H](CCSC)NC(=O)[C@H](CCC(N)=O)NC(=O)[C@H](CCCCN)NC(=O)[C@H](CO)NC(=O)[C@H](CC(C)C)NC(=O)[C@H](CC(=O)O)NC(=O)[C@H](CO)NC(=O)[C@@H](NC(=O)[C@H](Cc1ccccc1)NC(=O)[C@@H](NC(=O)CNC(=O)[C@H](CCC(=O)O)NC(=O)C(C)(C)NC(=O)[C@@H](N)Cc1c[nH]cn1)[C@@H](C)O)[C@@H](C)O)C(C)C)C(=O)N[C@@H](CCC(=O)O)C(=O)N[C@@H](Cc1c[nH]c2ccccc12)C(=O)N[C@@H](CC(C)C)C(=O)N[C@@H](CCCCN)C(=O)N[C@@H](CC(N)=O)C(=O)NCC(=O)NC(C)(C)C(=O)N[C@@H](CC(C)C)C(=O)N[C@@H](CCC(=O)O)C(=O)N[C@@H](Cc1ccccc1)C(=O)N[C@@H](CC(C)C)C(=O)N[C@@H](CCC(=O)O)C(=O)N[C@@H](CC(C)C)C(=O)N[C@@H](CC(C)C)C(N)=O` [Compound 34, [Aib2,Glu21,Aib30,Leu31,Glu32,Phe33,Leu34,Glu35,Leu36,Leu371-Exendin-4-(1-37)-peptide amide] (H-H[Aib]EGTFTSDLSKQMEEEAVREFIEWLKNG[Aib]LEFLELL-NH2; N-terminus assumed), the “4 h Cholesterol Efflux Emax” value in experiment [1] was 94%. The concentration for a half-maximal effect (EC50) on human GLP-1 receptor (setting [3]) was 0.032 nM.

As for `CC[C@H](C)[C@H](NC(=O)[C@H](Cc1ccccc1)NC(=O)[C@H](CCC(=O)O)NC(=O)[C@H](CCCCN)NC(=O)[C@@H](NC(=O)[C@H](C)NC(=O)[C@H](CCC(=O)O)NC(=O)CNC(=O)[C@H](CCC(=O)O)NC(=O)[C@H](CC(C)C)NC(=O)[C@H](Cc1ccc(O)cc1)NC(=O)[C@H](CO)NC(=O)[C@H](CO)NC(=O)[C@@H](NC(=O)[C@H](CC(=O)O)NC(=O)[C@H](CO)NC(=O)[C@@H](NC(=O)[C@H](Cc1ccccc1)NC(=O)[C@@H](NC(=O)CNC(=O)[C@H](CCC(=O)O)NC(=O)C(C)(C)NC(=O)[C@@H](N)Cc1c[nH]cn1)[C@@H](C)O)[C@@H](C)O)C(C)C)C(C)C)C(=O)N[C@@H](C)C(=O)N[C@@H](Cc1c[nH]c2ccccc12)C(=O)N[C@@H](CC(C)C)C(=O)N[C@H](C(=O)N[C@@H](CCC(=O)O)C(=O)N[C@@H](CCCCN)C(=O)NC(C)(C)C(=O)N[C@@H](CCCCN)C(=O)N[C@@H](CCC(=O)O)C(=O)N[C@@H](Cc1ccccc1)C(=O)N[C@@H](CC(C)C)C(=O)N[C@@H](CCC(=O)O)C(=O)N[C@@H](CCCCN)C(N)=O)C(C)C` [Compound 70, [Aib8,Glu23,Val25,Glu34,Lys35,Aib36,Lys37]-GLP-1-(7-37)-peptidyl-Glu-Phe-Leu-Glu-Lys amide], the “4 h Cholesterol Efflux Emax” value in experiment [1] is listed as 91%. In addition, the EC50 on human GLP-1 receptor (setting [2]) amounted to 0.157 nM.

Take “H-HGEGTFTSDVSSYLEEEAVKEFIAWLVEKVKEKL-NH2 [Compound 111, [Gly8,Glu22,Glu23,Val25,Glu34,Lys35,Val36,Lys37]-GLP-1-(7-37)-peptidyl-Glu-Lys-Leu amide]”: in experiment [1], the “4 h Cholesterol Efflux Emax” value worked out at 117%. The response at human GLP-1 receptor (setting [3]) was half-maximal at 0.076 nM (EC50).

Consider `CC(C)C[C@H](NC(=O)[C@H](Cc1ccccc1)NC(=O)[C@H](CCC(=O)O)NC(=O)[C@H](CCCCN)NC(=O)C(C)(C)NC(=O)[C@H](CCCCN)NC(=O)[C@H](CCC(=O)O)NC(=O)[C@@H](NC(=O)[C@H](CC(C)C)NC(=O)[C@H](Cc1c[nH]c2ccccc12)NC(=O)[C@H](CCC(N)=O)NC(=O)[C@@H](NC(=O)[C@H](Cc1ccccc1)NC(=O)[C@H](CCC(=O)O)NC(=O)[C@H](CCCCN)NC(=O)[C@@H](NC(=O)[C@H](C)NC(=O)[C@H](CCC(=O)O)NC(=O)CNC(=O)[C@H](CCC(=O)O)NC(=O)[C@H](CC(C)C)NC(=O)[C@H](Cc1ccc(O)cc1)NC(=O)[C@H](CO)NC(=O)[C@H](CO)NC(=O)[C@@H](NC(=O)[C@H](CC(=O)O)NC(=O)[C@H](CO)NC(=O)[C@@H](NC(=O)[C@H](Cc1ccccc1)NC(=O)[C@@H](NC(=O)CNC(=O)[C@H](CCC(=O)O)NC(=O)C(C)(C)NC(=O)[C@@H](N)Cc1c[nH]cn1)[C@@H](C)O)[C@@H](C)O)C(C)C)C(C)C)C(C)C)C(C)C)C(N)=O` [Compound 65, [Aib8,Glu23,Val25,Val29,Gln30,Glu34,Lys35,Aib36,Lys37]-GLP-1-(7-37)-peptidyl-Glu-Phe-Leu amide] (H-H[Aib]EGTFTSDVSSYLEGEAVKEFVQWLVEK[Aib]KEFL-NH2; N-terminus assumed), for which the “4 h Cholesterol Efflux Emax” value in experiment [1] was found to be 96%. The EC50 in experiment [1] (read-out: 4 h Cholesterol Efflux EC50, ABCA1-mediated efflux (CPT-cAMP induced minus non-induced)) came to 410 nM; at human GLP-1 receptor (GLP1R CRE luc 1% HSA EC50 Mean Value), 0.037 nM.

On to `CC[C@H](C)[C@H](NC(=O)[C@H](Cc1ccccc1)NC(=O)[C@H](CCC(=O)O)NC(=O)[C@H](CCCCN)NC(=O)[C@@H](NC(=O)[C@H](C)NC(=O)[C@H](CCC(=O)O)NC(=O)CNC(=O)[C@H](CCC(=O)O)NC(=O)[C@H](CC(C)C)NC(=O)[C@H](Cc1ccc(O)cc1)NC(=O)[C@H](CO)NC(=O)[C@H](CO)NC(=O)[C@@H](NC(=O)[C@H](CC(=O)O)NC(=O)[C@H](CO)NC(=O)[C@@H](NC(=O)[C@H](Cc1ccccc1)NC(=O)[C@@H](NC(=O)CNC(=O)[C@H](CCC(=O)O)NC(=O)C(C)(C)NC(=O)[C@@H](N)Cc1c[nH]cn1)[C@@H](C)O)[C@@H](C)O)C(C)C)C(C)C)C(=O)N[C@@H](C)C(=O)N[C@@H](Cc1c[nH]c2ccccc12)C(=O)N[C@@H](CC(C)C)C(=O)N[C@H](C(=O)N[C@@H](CCC(=O)O)C(=O)N[C@@H](CCCCN)C(=O)NCC(=O)N[C@@H](CCCCN)C(=O)N[C@@H](CCC(=O)O)C(=O)N[C@@H](Cc1ccccc1)C(=O)N[C@@H](CC(C)C)C(N)=O)C(C)C` [Compound 113, [Aib8,Glu23,Val25,Glu34,Lys35,Gly36,Lys37]-GLP-1-(7-37)-peptidyl-Glu-Phe-Leu amide] (H-H[Aib]EGTFTSDVSSYLEGEAVKEFIAWLVEKGKEFL-NH2), for which the “4 h Cholesterol Efflux Emax” value in experiment [1] is given as 143%. Besides, the EC50 on human GLP-1 receptor (setting [2]) came to 0.034 nM.

For `CC[C@H](C)[C@H](NC(=O)[C@H](Cc1ccccc1)NC(=O)[C@H](CCC(=O)O)NC(=O)[C@H](CCCCN)NC(=O)[C@@H](NC(=O)[C@H](C)NC(=O)[C@H](CCC(=O)O)NC(=O)CNC(=O)[C@H](CCC(=O)O)NC(=O)[C@H](CC(C)C)NC(=O)[C@H](Cc1ccc(O)cc1)NC(=O)[C@H](CO)NC(=O)[C@H](CO)NC(=O)[C@@H](NC(=O)[C@H](CC(=O)O)NC(=O)[C@H](CO)NC(=O)[C@@H](NC(=O)[C@H](Cc1ccccc1)NC(=O)[C@@H](NC(=O)CNC(=O)[C@H](CCC(=O)O)NC(=O)C(C)(C)NC(=O)[C@@H](N)Cc1c[nH]cn1)[C@@H](C)O)[C@@H](C)O)C(C)C)C(C)C)C(=O)N[C@@H](CCC(=O)O)C(=O)N[C@@H](Cc1c[nH]c2ccccc12)C(=O)N[C@@H](CC(C)C)C(=O)N[C@H](C(=O)N[C@@H](CCC(=O)O)C(=O)N[C@@H](CCCCN)C(=O)N[C@H](C(=O)N[C@@H](CCCCN)C(=O)N[C@@H](CCC(=O)O)C(=O)N[C@@H](CCCCN)C(=O)N[C@@H](CC(C)C)C(N)=O)C(C)C)C(C)C` [Compound 112] (H-H[Aib]EGTFTSDVSSYLEGEAVKEFIEWLVEKVKEKL-NH2), in experiment [1], the “4 h Cholesterol Efflux Emax” value was determined as 119%. For the same compound, the EC50 came out at 0.163 nM on human GLP-1 receptor (setting [2]) and 0.039 nM at human GLP-1 receptor (setting [3]).
